Measurements from patent US20020160066A1, “Composition and methods containing an antimicrobial essential oil extracted from Coleus forskohlii” (priority 2001, published 2002).

How the values were obtained:
Staphylococcus aureus = test: Second study, disk clearance zone, Staphylococcus aureus; assay type: cell-based; settings: 30 μg/disk
From the text: Determination of the antimicrobial activity of the composition. The sensitivity of Propionbacterium acnes a microorganism associated with acne and other skin infections (Nishijima, et al. (2000)), Staphylococcus aureus a bacterial strain found in infected wounds and skin eruptions including acne (Nishijima, et al. 1994)), Staphylococcus epidermidis a bacterial strain occurring in a variety of opportunistic bacterial skin infections and in acne (Nishijima, S. et al. (2000)) and Streptococcus mutans, a bacterial strain associated with the progression of dental caries (Sanchez-Perez, L. et al. (2001)), Candida albican, and Streptococcus epidermidis; to Coleus forskohlii oil using disk diffusion methodology was determined. One strain each of Propionbacterium acnes (ATCC 11827), Staphylococcus aureus (ATCC 29213), Streptococcus mutans (ATCC 25175), and Staphylococcus epidermidis (ATCC 14990) Candida albicans (ATCC 11006) and Streptococcus epidermidis (ATCC 14990) were obtained from ATCC. Propionbacterium acnes culture were grown in Reinforced Clostridia media under anaerobic conditions at 37° C. for 24 hours. Staphylococcus aureus, Streptococcus mutans and Staphylococcus epidermidis cultures were cultured in Trypticase Soy Broth under aerobic conditions at 37° C. for 24 hours. […] Inhibition zones were measured to the closest one tenth of one millimeter using a caliper. […]

E. coli = test: Second study, disk clearance zone, E. coli; assay type: cell-based; settings: Escherichia coli; 30 μg/disk

O=C(N[C@H](CO)[C@H](O)c1ccc([N+](=O)[O-])cc1)C(Cl)Cl [Chloramphenicol]
zone of inhibition at 30 µg/disc (Staphylococcus aureus): 20 mm
zone of inhibition at 30 µg/disc (E. coli): 34 mm
